Test results published in patent publication US20210179853A1, “DRUG THAT REACTS WITH ACROLEIN, USE THEREOF AND NOVEL COMPOUND” (RIKEN, priority 2018, published 2021).

Tests used:
[1] = system: acrolein that is generated from a cell; experiment: Sensitivity comparison with conventional detection reagent: staining of normal and cancer cells; type: cell-based, human; details: for acrolein concentration level that can be detected: acrolein generated from a cell, suggested from FIG. 3 staining; for identification of localization and morphology of a cancer cell: at a low reagent concentration (0.25-1.5 μM, 5 minutes)
Method: Respective detection sensitivities of a detection reagent (TAMRA-PhN3) represented by Formula below and the compound 7 (TAMRA-di-iPr-PhN3) prepared in Example 1 were compared. Cells illustrated in FIG. 3 (for description of cell strains, see also Reference Example 1) were each immersed in an aqueous solution, containing the detection reagent at a concentration of 0.25 μM, 0.75 μM, or 1.5 μM, for 5 minutes so as to be stained.

acrolein = experiment: Selective detection of acrolein: fluorescence staining of 11 normal and cancer cell lines; type: cell-based, human; details: 2.5-22.5 μM, 30 minutes at room temperature, with a higher concentration; FIG. 1
Method: The following 11 cell lines were seeded in 96 wells (4×10^4 cells/well) and left to stand for 24 hours before treatment so that the cell lines were adhered to the wells.
Normal cell: normal human diploid fibroblast (TIG3), normal human umbilical vein endothelial cell (HUVEC), normal human mammary gland cell (MCF10A)
Cancer cell: SKBR3 (human breast cancer cell), MDA-MB-231 (human breast cancer cell), BxPC3 (human pancreatic cancer cell), HT29 (human colonic cancer cell), MCF7 (human breast cancer cell), A549 (human lung cancer cell), HeLaS3 (human cervical cancer cell), PC3 (human prostatic cancer cell)
The cells were treated by adding, to media, 100 μL of TAMRA-PhN3 solutions (2.5 μM, 7.5 μM, 12.5 μM, 17.5 μM, 22.5 μM) described in Non-patent Literature 1 and Example 2. Then, the cells were incubated at room temperature for 30 minutes. The cells were fixed by paraformaldehyde, and fluorescence was recorded with use of Spectra Max M2e (Molecular Devices, LLC.).
In FIG. 1, the vertical axis represents a relative fluorescence intensity (arbitrary unit), and the horizontal axis represents a result of staining (fluorescence) of each normal or cancer cell.

[2] = system: invasive ductal carcinoma-positive, ductal carcinoma in situ-positive and cancer-negative tissue; experiment: Staining of cancer tissue in a living tissue state; type: cell-based; details: 5, 10, 20 μM, 5 minutes at room temperature; FIG. 2
Method: An invasive ductal carcinoma-positive tissue (IDC-positive), a ductal carcinoma in situ-positive tissue (DCIS-positive), and a cancer-negative tissue (Cancer-negative) were each immersed in a TAMRA-PhN3 solution (5 μM, 10 μM, 20 μM). These tissues were incubated at room temperature for 5 minutes. The tissues were each stained in a living tissue state. […] Note that cell nuclei are stained with DAPI.
In FIG. 2, “Eyesight” indicates a photograph of each tissue that has been stained, and “Microscopy (×1)”, “Microscopy (×200)”, and “Microscopy (×400)” each indicate results of observations carried out with use of microscopes having respective magnifications of 1 time, 200 times, and 400 times.

CC(C)c1cc(CNC(=O)c2ccc(-c3c4ccc(=[N+](C)C)cc-4oc4cc(N(C)C)ccc34)c(C(=O)[O-])c2)cc(C(C)C)c1N=[N+]=[N-] [compound 7, 5-carboxymethylrhodamine-diisopropylphenylazide]
acrolein concentration level that can be detected [1]: pM level | identification of localization and morphology of a cancer cell [1]: possible to identify localization and morphology of a cancer cell | detection sensitivity relative to TAMRA-PhN3 ([1]; cells immersed in aqueous solution of reagent at 0.25, 0.75 or 1.5 μM for 5 minutes, FIG. 3): not less than 100 times

CN(C)c1ccc2c(-c3ccc(C(=O)NCc4ccc(N=[N+]=[N-])cc4)cc3C(=O)[O-])c3ccc(=[N+](C)C)cc-3oc2c1 [TAMRA-PhN3]
acrolein concentration level that can be detected [1]: nM-level | identification of localization and morphology of a cancer cell [1]: cannot be identified | reaction product with acrolein (relative fluorescence intensity) (acrolein): increase in reaction product (fluorescence intensity) | observation of localization and morphology of a cancer cell in a living tissue [2]: possible to observe localization and morphology of a cancer cell in detail in a living tissue
